# Source: PubChem BioAssay AID2060484 (Molecular Pharmacology Branch, DTP, NCI, 2025)
# Where “and” joins values, the source holds several entries; their conditions need not be identical. Identical values can stand only once.
# System: SUM149PT spheroids with HUVEC/MSC, viability
# Assay: Anticancer human tumor SUM149PT cell line growth inhibition [GQUAD];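 also: spheroids exposed to drugs for seven days before readout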;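 as to viability, T/C: percent viability relative to DMSO vehicle control taken as 100%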
# Details: for viability, T/C: stronger effect = lower value
# Excerpt: DNA G-quadruplex Stabilizer Agents in Combinations in Complex Spheroids
# A high-throughput screen of multi-cell type tumor spheroids was designed to identify active combinations of DNA G-quadruplex stabilizer agents and targeted small molecules. Complex spheroids include a stromal component modeled by human endothelial cells (HUVEC) and fibroblasts modeled by human mesenchymal stem cells (MSCs). The concentration ranges selected for each drug and investigational agent were based upon clinically achievable concentrations if the clinical Cmax of the agent was known.
# Compounds. The drugs and investigational agents: pidnarulex (CX-5461; NSC782164), APTO-253 (NSC789042), BRACO-19 (NSC847499), peposertib (NSC802822), ceralasertib (NSC780249), elimusertib (NSC800525), camonsertib (NSC841442), AZD-1390 (NSC803789), olaparib (NSC753686), talazoparib (NSC767125), ART-558 (NSC835418), sotorasib (NSC818433), MRTX-1133 (NSC836407), SN-38 (NSC673596), topotecan (NSC609699), etoposide (NSC141540), doxorubicin (NSC123127), gemcitabine (NSC613327), 5-fluorouracil (NSC19893), paclitaxel (NSC125973), vemurafenib (NSC761431), panobinostat (NSC761190), R-306465 (JNJ-16241199; NSC773264), adavosertib (NSC754352), TP-3654 (NSC805149), carboplatin (NSC241240), KSQ-4279 (NSC840948), and staurosporine (NSC755774) were obtained from the National Cancer Institute (NCI) Developmental Therapeutics Program Chemical Repository (34). The FDA-approved anticancer drug set is available from the NCI Developmental Therapeutics Program. […] The stock solutions were prepared in dimethyl sulfoxide (DMSO, Sigma-Aldrich, St. Louis, MO, cat. D2650) at 800-fold the tested concentration and stored at -70 degrees C prior to their use. All drugs and investigational agents were tested over a range starting from a high concentration at or near the clinical Cmax and decreasing in half-log increments. If the clinical Cmax for an agent had not been determined, the highest concentration tested was 10 microM.
# 2.3 Cell Culture. All cells were maintained in an incubator at 37 degrees C and 5% CO2 with 95% humidity. The PDC lines were cultured according to standard operating procedures established by the NCI PDMR. All PDCs were thawed and cultured in Matrigel-coated flasks prepared with a working solution of 1X Ham's F-12 nutrient mix, without supplementation (Invitrogen, cat. 11765054), 100 U/mL penicillin-streptomycin (Invitrogen, cat. 15140122), and 2.5% Matrigel (Corning Inc., cat. 354248) for the first three passages. The 857933-349-R-J2-PDC line was cultured in 6C/Colon 1B media, which includes advanced DMEM/F-12 (Thermo Fisher Scientific, cat. 12634028), 10 mM HEPES (Thermo Fisher Scientific, cat. 15630080), 1X GlutaMAX supplement (Thermo Fisher Scientific, cat. 35050061), 0.1 mg/mL primocin (InvivoGen, cat. ant-pm-2), 10% defined fetal bovine serum, heat inactivated (HyClone Laboratories Inc., cat. SH30070.03HI), 50% L-WRN conditioned media (ATCC, cat. CRL-3276), 1.25 mM N-Acetyl-L-cysteine (Sigma-Aldrich, cat. A9165), 10 mM nicotinamide (Sigma-Aldrich, cat. N0636), 1X B-27 supplement (Thermo Fisher Scientific, cat. 17504044), 1X N-2 supplement (Thermo Fisher Scientific, cat. 17502048), 10 microM Y-27632 dihydrochloride (Tocris Bioscience, cat. 1254), and 50 ng/mL human EGF recombinant protein (Thermo Fisher Scientific, cat. PHG0311). The 485176-168-R4-J1-PDC line was cultured in Panc media, which includes all 6C/Colon 1B media components plus 100 ng/mL human FGF-10 (Thermo Fisher Scientific, cat. 100-26), 500 nM SB-431542 (Selleckchem, cat. S1067), and gastrin (Tocris, cat. 3006).
# […]
smiles,measurement,setting,value
CC1COCCN1c1cc(C2(O)CC3CCC(C2)O3)c2cnn(-c3ccn[nH]3)c2n1 (configuration not stated) + CN(C)c1ccc(Nc2c3ccc(NC(=O)CCN4CCCC4)cc3nc3cc(NC(=O)CCN4CCCC4)ccc23)cc1,IC50,"curve of first compound, second compound 0.0316 µM",82.7 nM
same,IC50,"curve of first compound, second compound 0.1 µM",85.2 nM
same,IC50,"curve of first compound, second compound 0.316 µM",74.5 nM
same,IC50,"curve of first compound, second compound 1 µM",65.1 nM
same,IC50,"curve of first compound, second compound 3.16 µM",56.7 nM
same,IC50,"curve of first compound, second compound 10 µM",59.9 nM
same,"viability, T/C","second compound 0.0316 µM, first compound 0.0316 µM",84.2%
same,"viability, T/C","second compound 0.0316 µM, first compound 0.1 µM",43.3%
same,"viability, T/C","second compound 0.0316 µM, first compound 0.316 µM",27%
same,"viability, T/C","second compound 0.0316 µM, first compound 1 µM",25.3%
same,"viability, T/C","second compound 0.0316 µM, first compound 3.16 µM",31.2%
same,"viability, T/C","second compound 0.0316 µM, first compound 10 µM",20%
same,"viability, T/C","second compound 0.1 µM, first compound 0.0316 µM",77.4%
same,"viability, T/C","second compound 0.1 µM, first compound 0.1 µM",45%
same,"viability, T/C","second compound 0.1 µM, first compound 0.316 µM",31.4%
same,"viability, T/C","second compound 0.1 µM, first compound 1 µM",25.1%
same,"viability, T/C","second compound 0.1 µM, first compound 3.16 µM",27.5%
same,"viability, T/C","second compound 0.1 µM, first compound 10 µM",18.4%
same,"viability, T/C","second compound 0.316 µM, first compound 0.0316 µM",68.8%
same,"viability, T/C","second compound 0.316 µM, first compound 0.1 µM",42.7%
same,"viability, T/C","second compound 0.316 µM, first compound 0.316 µM",30.8%
same,"viability, T/C","second compound 0.316 µM, first compound 1 µM",27.8%
same,"viability, T/C","second compound 0.316 µM, first compound 3.16 µM",24.2%
same,"viability, T/C","second compound 0.316 µM, first compound 10 µM",19.6%
same,"viability, T/C","second compound 1 µM, first compound 0.0316 µM",68.2%
same,"viability, T/C","second compound 1 µM, first compound 0.1 µM",39.5%
same,"viability, T/C","second compound 1 µM, first compound 0.316 µM",23.4%
same,"viability, T/C","second compound 1 µM, first compound 1 µM",26.6%
same,"viability, T/C","second compound 1 µM, first compound 3.16 µM",21.5%
same,"viability, T/C","second compound 1 µM, first compound 10 µM",19.5%
same,"viability, T/C","second compound 3.16 µM, first compound 0.0316 µM",62.3%
same,"viability, T/C","second compound 3.16 µM, first compound 0.1 µM",38.5%
same,"viability, T/C","second compound 3.16 µM, first compound 0.316 µM",24.3%
same,"viability, T/C","second compound 3.16 µM, first compound 1 µM",22.6%
same,"viability, T/C","second compound 3.16 µM, first compound 3.16 µM",22.6%
same,"viability, T/C","second compound 3.16 µM, first compound 10 µM",15.6%
same,"viability, T/C","second compound 10 µM, first compound 0.0316 µM",65.8%
same,"viability, T/C","second compound 10 µM, first compound 0.1 µM",37.6%
same,"viability, T/C","second compound 10 µM, first compound 0.316 µM",23.5%
same,"viability, T/C","second compound 10 µM, first compound 1 µM",22.9%
same,"viability, T/C","second compound 10 µM, first compound 3.16 µM",20.1%
same,"viability, T/C","second compound 10 µM, first compound 10 µM",15.7%
Cc1cnc(CNC(=O)c2c(=O)c3ccc(N4CCCN(C)CC4)nc3n3c2sc2ccccc23)cn1,"viability, T/C",compound 0.0316 µM,87.8% [middle of 12 runs]
same,"viability, T/C",compound 0.1 µM,70% [middle of 12 runs]
same,"viability, T/C",compound 0.316 µM,57.5% [middle of 12 runs]
same,"viability, T/C",compound 1 µM,46.9% [middle of 12 runs]
same,"viability, T/C",compound 3.16 µM,36.2% [middle of 12 runs]
same,IC50,"compound alone, run of 03/18/2024",725 nM [middle of 12 runs]
C#Cc1c(F)ccc2cc(O)cc(-c3ncc4c(N5CC6CCC(C5)N6)nc(OCC56CCCN5CC(F)C6)nc4c3F)c12 (configuration not stated),"viability, T/C",compound 0.0316 µM,92.8% and 104% and 99.7%
same,"viability, T/C",compound 0.1 µM,74.4% and 90.1% and 92.7%
same,"viability, T/C",compound 0.316 µM,58.9% and 82.1% and 77.1%
same,"viability, T/C",compound 1 µM,40.6% and 62.5% and 67.6%
same,"viability, T/C",compound 3.16 µM,37.8% and 70.5% and 53.1%
same,"viability, T/C",compound 10 µM,30.2% and 42.8% and 41.5%
CC[C@@]1(O)C(=O)OCc2c1cc1n(c2=O)Cc2cc3c(CN(C)C)c(O)ccc3nc2-1,"viability, T/C",compound 0.000999 µM,105% (2×) and 108%
same,"viability, T/C",compound 0.00316 µM,94.7% and 93.8% and 94.1%
same,"viability, T/C",compound 0.00999 µM,98% and 95.1% and 105%
same,"viability, T/C",compound 0.0316 µM,84.5% and 87.9% and 69.8%
same,"viability, T/C",compound 0.0999 µM,43.6% and 53.2% and 39.2%
same,"viability, T/C",compound 0.316 µM,49.1% and 51.8% and 48.5%
same,IC50,curve of compound,89.5 nM and > 316 nM and 76 nM
Cc1[nH]c2ccccc2c1CCNCc1ccc(/C=C/C(=O)NO)cc1,"viability, T/C",compound 0.000999 µM,104% and 108% and 97.7%
same,"viability, T/C",compound 0.00316 µM,106% and 89.7% and 105%
same,"viability, T/C",compound 0.00999 µM,90.3% and 107% and 101%
same,"viability, T/C",compound 0.0316 µM,94.4% and 97.2% and 110%
same,"viability, T/C",compound 0.0999 µM,92.1% and 91.4% and 106%
same,"viability, T/C",compound 0.316 µM,41.8% and 37.1% and 34.2%
same,IC50,curve of compound,264 nM and 241 nM and 244 nM
CC1COCCN1c1cc(C2(S(C)(=N)=O)CC2)nc(-c2ccnc3[nH]ccc23)n1 (configuration not stated),"viability, T/C",compound 0.0316 µM,95.4% and 101% (2×)
same,"viability, T/C",compound 0.1 µM,98.2% and 91% and 98.3%
same,"viability, T/C",compound 0.316 µM,96% and 99.7% and 94.1%
same,"viability, T/C",compound 1 µM,86.7% and 83.5% and 77.8%
same,"viability, T/C",compound 3.16 µM,39% and 44.6% and 81.2%
same,"viability, T/C",compound 10 µM,24.2% and 26.8% and 16.7%
same,IC50,curve of compound,2420 nM and 2690 nM and 5210 nM
CC1COCCN1c1cc(C2(O)CC3CCC(C2)O3)c2cnn(-c3ccn[nH]3)c2n1 (configuration not stated),"viability, T/C",compound 0.0316 µM,71.4% and 88.3% and 80.1%
same,"viability, T/C",compound 0.1 µM,28.2% and 38.6% and 42.2%
same,"viability, T/C",compound 0.316 µM,23.5% and 28.2% and 31.8%
same,"viability, T/C",compound 1 µM,21.8% and 24.9% and 25.9%
same,"viability, T/C",compound 3.16 µM,19.8% and 24.2% and 26.4%
same,"viability, T/C",compound 10 µM,14.5% and 15.5% and 18.8%
same,IC50,curve of compound,56.8 nM and 79 nM and 82.7 nM
